Laboratory results published in ChEMBL document CHEMBL5143758, “2-Amino-1,3,4-thiadiazoles as Glutaminyl Cyclases Inhibitors Increase Phagocytosis through Modification of CD47-SIRPα Checkpoint” (ACS Med Chem Lett, 2022).

biological target: Glutaminyl-peptide cyclotransferase (Homo sapiens, UniProt Q16769)
Sequence (Q16769 whole entry): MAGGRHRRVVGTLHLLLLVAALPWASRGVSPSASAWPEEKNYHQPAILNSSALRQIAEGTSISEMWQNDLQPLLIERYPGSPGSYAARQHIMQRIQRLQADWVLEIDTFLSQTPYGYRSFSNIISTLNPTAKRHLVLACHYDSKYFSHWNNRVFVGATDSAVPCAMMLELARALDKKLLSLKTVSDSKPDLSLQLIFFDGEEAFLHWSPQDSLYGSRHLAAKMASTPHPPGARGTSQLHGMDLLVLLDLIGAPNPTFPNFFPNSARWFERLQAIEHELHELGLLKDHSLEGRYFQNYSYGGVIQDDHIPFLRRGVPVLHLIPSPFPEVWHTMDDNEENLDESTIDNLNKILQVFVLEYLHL
Description: Inhibition of recombinant human QC using H-Gln-AMC hydrobromide as fluorogenic substrate incubated for 6 hrs by fluorometric microplate reader analysis

Compound | IC50
Cc1c[nH]cn1 | 110 µM
Sc1nc2ccccc2[nH]1 [2-MERCAPTOBENZIMIDAZOLE] | 551 µM
Oc1ccccc1O [CATECHOL] | 5 µM
Oc1cccc2cccnc12 [OXYQUINOLINE] | 208 µM

Other lines, results leading:

IC50 | Compound
203 µM | O=C(O)c1ccc2cccc(O)c2n1
144 µM | Cc1cncn1-c1ccccc1
772 µM | Cn1cccc(O)c1=O
232 µM | O=c1ccocc1O
390 µM | O=C1CNC(=S)N1 [THIOHYDANTOIN]

biological target: Glutaminyl-peptide cyclotransferase-like protein (Homo sapiens, UniProt Q9NXS2); test: Inhibition of recombinant human isoQC using H-Gln-AMC hydrobromide as fluorogenic substrate incubated for 6 hrs by fluorometric microplate reader analysis
Sequence (Q9NXS2 whole entry): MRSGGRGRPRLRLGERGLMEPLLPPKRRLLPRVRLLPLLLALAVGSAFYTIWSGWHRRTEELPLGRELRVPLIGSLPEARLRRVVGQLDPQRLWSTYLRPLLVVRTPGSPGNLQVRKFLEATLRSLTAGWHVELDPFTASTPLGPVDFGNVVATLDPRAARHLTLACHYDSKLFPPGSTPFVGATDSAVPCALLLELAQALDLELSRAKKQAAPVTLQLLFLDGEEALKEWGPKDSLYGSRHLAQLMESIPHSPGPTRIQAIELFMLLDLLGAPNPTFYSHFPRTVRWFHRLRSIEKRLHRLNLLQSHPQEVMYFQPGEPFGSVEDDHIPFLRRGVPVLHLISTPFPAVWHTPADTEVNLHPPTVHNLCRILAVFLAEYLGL

Compound | IC50
COc1ccc(NC(=S)NCCCn2ccnc2)cc1OC | 0.351 µM
